The species entered for the first assay is Bos taurus. To be noted: at 10 µM.
Sequence of Mitogen-activated protein kinase 11 (Homo sapiens) (Q15759 whole entry): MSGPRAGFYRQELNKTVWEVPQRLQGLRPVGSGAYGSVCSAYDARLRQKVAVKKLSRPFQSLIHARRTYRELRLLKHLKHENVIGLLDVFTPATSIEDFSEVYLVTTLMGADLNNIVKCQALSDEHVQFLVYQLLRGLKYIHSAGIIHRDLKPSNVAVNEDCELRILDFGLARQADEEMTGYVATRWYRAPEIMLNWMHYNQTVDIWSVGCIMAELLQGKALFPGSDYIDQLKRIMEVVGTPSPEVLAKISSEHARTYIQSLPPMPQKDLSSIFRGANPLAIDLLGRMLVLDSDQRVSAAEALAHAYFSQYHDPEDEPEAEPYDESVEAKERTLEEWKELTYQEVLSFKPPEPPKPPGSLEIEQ
Sequence of Rho-associated protein kinase 2 (Rattus norvegicus) (Q62868 whole entry, looked up): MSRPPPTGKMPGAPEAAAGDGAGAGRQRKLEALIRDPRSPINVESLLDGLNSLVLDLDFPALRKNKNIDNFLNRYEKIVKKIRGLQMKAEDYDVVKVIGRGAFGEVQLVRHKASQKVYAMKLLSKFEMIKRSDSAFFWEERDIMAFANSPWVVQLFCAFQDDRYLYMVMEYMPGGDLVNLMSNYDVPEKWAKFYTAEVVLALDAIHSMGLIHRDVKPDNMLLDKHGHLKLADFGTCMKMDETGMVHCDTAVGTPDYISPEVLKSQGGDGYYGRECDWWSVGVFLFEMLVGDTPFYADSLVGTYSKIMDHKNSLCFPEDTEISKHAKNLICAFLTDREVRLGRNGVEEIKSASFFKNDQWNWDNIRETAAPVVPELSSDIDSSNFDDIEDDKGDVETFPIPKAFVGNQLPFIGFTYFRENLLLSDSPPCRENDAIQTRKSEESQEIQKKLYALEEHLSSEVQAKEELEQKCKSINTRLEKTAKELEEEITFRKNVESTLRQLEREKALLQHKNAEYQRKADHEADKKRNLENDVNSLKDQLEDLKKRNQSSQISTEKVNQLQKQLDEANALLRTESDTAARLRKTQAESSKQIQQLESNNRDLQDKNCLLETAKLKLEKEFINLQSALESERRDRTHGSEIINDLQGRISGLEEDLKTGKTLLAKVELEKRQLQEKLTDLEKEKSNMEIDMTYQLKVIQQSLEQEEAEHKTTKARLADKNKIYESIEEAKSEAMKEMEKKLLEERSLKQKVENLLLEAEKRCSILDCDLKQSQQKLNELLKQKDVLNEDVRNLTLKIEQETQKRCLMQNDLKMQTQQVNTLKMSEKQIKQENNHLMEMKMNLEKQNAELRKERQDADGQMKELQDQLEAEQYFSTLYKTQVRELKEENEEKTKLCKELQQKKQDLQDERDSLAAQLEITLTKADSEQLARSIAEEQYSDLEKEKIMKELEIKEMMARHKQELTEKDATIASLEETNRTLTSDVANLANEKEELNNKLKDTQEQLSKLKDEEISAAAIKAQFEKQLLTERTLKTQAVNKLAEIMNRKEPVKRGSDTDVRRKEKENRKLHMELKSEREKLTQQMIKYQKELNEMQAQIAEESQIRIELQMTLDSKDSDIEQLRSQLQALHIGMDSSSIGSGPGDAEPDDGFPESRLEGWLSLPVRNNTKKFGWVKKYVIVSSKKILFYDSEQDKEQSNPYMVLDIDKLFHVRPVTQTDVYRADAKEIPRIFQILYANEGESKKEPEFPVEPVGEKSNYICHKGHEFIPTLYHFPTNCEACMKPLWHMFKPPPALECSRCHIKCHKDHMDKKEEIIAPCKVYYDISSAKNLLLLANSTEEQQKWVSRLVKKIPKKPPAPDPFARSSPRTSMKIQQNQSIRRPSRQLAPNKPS
Sequence of Ribosomal protein S6 kinase beta-1 (P23443 whole entry, looked up): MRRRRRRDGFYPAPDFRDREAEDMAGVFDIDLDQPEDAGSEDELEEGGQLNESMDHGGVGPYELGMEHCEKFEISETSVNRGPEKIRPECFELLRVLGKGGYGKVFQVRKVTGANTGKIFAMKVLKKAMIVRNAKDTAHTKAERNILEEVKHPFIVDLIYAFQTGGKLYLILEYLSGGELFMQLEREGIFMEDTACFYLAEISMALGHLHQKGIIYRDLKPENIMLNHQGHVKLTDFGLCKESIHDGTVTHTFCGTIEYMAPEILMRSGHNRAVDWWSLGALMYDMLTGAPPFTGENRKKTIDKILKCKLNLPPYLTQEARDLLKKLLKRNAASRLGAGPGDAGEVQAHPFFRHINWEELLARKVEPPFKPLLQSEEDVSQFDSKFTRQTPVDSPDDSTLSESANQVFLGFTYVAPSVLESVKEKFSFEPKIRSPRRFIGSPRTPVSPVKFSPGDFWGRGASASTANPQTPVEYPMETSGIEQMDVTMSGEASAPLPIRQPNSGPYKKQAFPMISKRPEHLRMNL
Sequence of Mitogen-activated protein kinase 8 (Homo sapiens) (P45983 whole entry): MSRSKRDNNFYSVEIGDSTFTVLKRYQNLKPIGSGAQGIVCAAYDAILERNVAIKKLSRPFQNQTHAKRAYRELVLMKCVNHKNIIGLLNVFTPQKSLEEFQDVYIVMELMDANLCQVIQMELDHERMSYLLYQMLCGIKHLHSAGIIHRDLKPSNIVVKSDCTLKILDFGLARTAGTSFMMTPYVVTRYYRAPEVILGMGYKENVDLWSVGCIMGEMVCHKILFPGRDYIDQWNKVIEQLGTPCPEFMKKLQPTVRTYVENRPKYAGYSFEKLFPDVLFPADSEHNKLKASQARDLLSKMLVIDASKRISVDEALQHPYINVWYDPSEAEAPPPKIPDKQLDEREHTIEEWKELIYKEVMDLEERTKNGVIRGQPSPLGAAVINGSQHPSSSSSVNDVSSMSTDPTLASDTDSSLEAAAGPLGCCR
As to `C[S+]([O-])c1ccc(-c2nc(-c3ccc(F)cc3)c(-c3ccncc3)[nH]2)cc1` (stereo not drawn), the residual activity amounted to 96%.

Consider `O=C1NCc2c1c1c3ccccc3[nH]c1c1[nH]c3ccccc3c21`, for which the residual activity is 99%.

The species entered for a further assay is Oryctolagus cuniculus. To be noted: Muscle tissue, at 10 µM.
With `C[S+]([O-])c1ccc(-c2nc(-c3ccc(F)cc3)c(-c3ccncc3)[nH]2)cc1` (stereo not drawn), the level, % of control turned out to be 104%.

`O=C1NCc2c1c1c3ccccc3[nH]c1c1[nH]c3ccccc3c21` had a level, % of control of 0%.

A further assay is filed under the species Oryctolagus cuniculus. To be noted: Muscle tissue, at 10 µM. This is another data set of the same source.
In turn, `C[S+]([O-])c1ccc(-c2nc(-c3ccc(F)cc3)c(-c3ccncc3)[nH]2)cc1` (stereo not drawn) displayed a level, % of control of 83%.

In turn, `O=C1NCc2c1c1c3ccccc3[nH]c1c1[nH]c3ccccc3c21` had a level, % of control of 29%.

Another assay addresses 3-phosphoinositide-dependent protein kinase 1 (Homo sapiens) (UniProt O15530). The settings on record: Sf21, at 10 µM.
In the case of `O=C1NCc2c1c1c3ccccc3[nH]c1c1[nH]c3ccccc3c21`, the residual activity worked out at 6%.

For the next assay, the target named is T1, Mitogen-activated protein kinase 13 (Homo sapiens) (UniProt O15264).
T1 sequence (whole entry): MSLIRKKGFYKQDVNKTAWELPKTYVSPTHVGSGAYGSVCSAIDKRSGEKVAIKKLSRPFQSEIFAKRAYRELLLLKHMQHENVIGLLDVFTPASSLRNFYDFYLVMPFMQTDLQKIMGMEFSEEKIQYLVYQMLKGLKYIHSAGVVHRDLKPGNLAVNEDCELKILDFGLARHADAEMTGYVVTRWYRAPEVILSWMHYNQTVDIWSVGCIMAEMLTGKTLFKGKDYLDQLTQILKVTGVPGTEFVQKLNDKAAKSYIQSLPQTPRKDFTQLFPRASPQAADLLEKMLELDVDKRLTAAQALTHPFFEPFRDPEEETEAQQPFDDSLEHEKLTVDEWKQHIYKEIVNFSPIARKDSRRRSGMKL
To be noted: at 10 µM.
Regarding `C[S+]([O-])c1ccc(-c2nc(-c3ccc(F)cc3)c(-c3ccncc3)[nH]2)cc1` (stereo not drawn), the residual activity was 93%.

As to `O=C1NCc2c1c1c3ccccc3[nH]c1c1[nH]c3ccccc3c21`, the residual activity is 93%.

For another assay, the target named is Glycogen synthase kinase-3 beta (Homo sapiens, UniProt P49841). The settings on record: Sf21, at 10 µM.
Sequence of Glycogen synthase kinase-3 beta (P49841 whole entry, looked up): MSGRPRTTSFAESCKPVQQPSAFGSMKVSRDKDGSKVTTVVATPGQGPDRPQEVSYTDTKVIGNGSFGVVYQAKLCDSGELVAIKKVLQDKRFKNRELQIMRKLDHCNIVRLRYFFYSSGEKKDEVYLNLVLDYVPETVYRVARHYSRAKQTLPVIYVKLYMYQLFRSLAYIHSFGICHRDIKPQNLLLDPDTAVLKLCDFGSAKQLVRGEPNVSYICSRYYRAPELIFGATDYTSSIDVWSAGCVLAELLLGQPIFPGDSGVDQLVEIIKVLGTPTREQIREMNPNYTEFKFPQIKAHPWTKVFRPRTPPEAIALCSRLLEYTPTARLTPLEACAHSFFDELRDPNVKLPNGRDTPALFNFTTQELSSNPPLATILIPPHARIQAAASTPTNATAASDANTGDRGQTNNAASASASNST
For the compound `C[S+]([O-])c1ccc(-c2nc(-c3ccc(F)cc3)c(-c3ccncc3)[nH]2)cc1` (stereo not drawn), the residual activity came out at 66%.

On to `O=C1NCc2c1c1c3ccccc3[nH]c1c1[nH]c3ccccc3c21`, for which the residual activity worked out at 84%.

A further assay concerns the target Protein kinase C alpha type (Homo sapiens, UniProt P17252). The settings on record: at 10 µM.
Consider `O=C1NCc2c1c1c3ccccc3[nH]c1c1[nH]c3ccccc3c21`, for which the residual activity is 60%.

In the next assay the target is Mitogen-activated protein kinase 1 (Homo sapiens) (UniProt P28482). The settings on record: at 10 µM.
Sequence of Mitogen-activated protein kinase 1 (Homo sapiens) (P28482 whole entry): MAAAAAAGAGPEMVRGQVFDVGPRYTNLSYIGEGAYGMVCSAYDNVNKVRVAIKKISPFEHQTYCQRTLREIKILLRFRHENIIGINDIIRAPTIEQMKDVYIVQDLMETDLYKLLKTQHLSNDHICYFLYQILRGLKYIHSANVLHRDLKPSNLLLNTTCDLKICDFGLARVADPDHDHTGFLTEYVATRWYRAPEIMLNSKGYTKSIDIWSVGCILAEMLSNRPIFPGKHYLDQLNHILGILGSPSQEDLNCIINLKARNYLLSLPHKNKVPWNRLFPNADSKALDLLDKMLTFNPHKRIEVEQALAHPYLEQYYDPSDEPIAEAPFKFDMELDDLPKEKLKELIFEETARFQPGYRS
Regarding `C[S+]([O-])c1ccc(-c2nc(-c3ccc(F)cc3)c(-c3ccncc3)[nH]2)cc1` (stereo not drawn), the residual activity turned out to be 85%.

`O=C1NCc2c1c1c3ccccc3[nH]c1c1[nH]c3ccccc3c21`: the residual activity stood at 37%.

In the next assay the target is Mitogen-activated protein kinase 14 (Homo sapiens) (UniProt Q16539). The settings on record: at 10 µM.
Sequence of Mitogen-activated protein kinase 14 (Homo sapiens) (Q16539 whole entry): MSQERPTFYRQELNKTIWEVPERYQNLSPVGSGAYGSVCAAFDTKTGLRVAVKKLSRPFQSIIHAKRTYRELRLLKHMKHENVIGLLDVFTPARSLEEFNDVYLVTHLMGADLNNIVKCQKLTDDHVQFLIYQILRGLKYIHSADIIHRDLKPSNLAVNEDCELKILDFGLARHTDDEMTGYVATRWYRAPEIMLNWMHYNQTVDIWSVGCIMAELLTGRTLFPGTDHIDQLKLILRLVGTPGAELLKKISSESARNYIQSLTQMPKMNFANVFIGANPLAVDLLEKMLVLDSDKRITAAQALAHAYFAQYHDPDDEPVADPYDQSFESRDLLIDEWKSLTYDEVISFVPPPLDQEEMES
Regarding `O=C1NCc2c1c1c3ccccc3[nH]c1c1[nH]c3ccccc3c21`, the residual activity was 100%.

In another assay the target is Tyrosine-protein kinase Lck (Homo sapiens) (UniProt P06239). The settings on record: Sf9, at 10 µM.
For `C[S+]([O-])c1ccc(-c2nc(-c3ccc(F)cc3)c(-c3ccncc3)[nH]2)cc1` (stereo not drawn), the residual activity turned out to be 32%.

As for `O=C1NCc2c1c1c3ccccc3[nH]c1c1[nH]c3ccccc3c21`, the residual activity was found to be 68%.

The species named for another assay is Rattus norvegicus. To be noted: at 10 µM.
With `C[S+]([O-])c1ccc(-c2nc(-c3ccc(F)cc3)c(-c3ccncc3)[nH]2)cc1` (stereo not drawn), the residual activity turned out to be 96%.

Consider `O=C1NCc2c1c1c3ccccc3[nH]c1c1[nH]c3ccccc3c21`, for which the residual activity was 30%.

A further assay concerns the target Mitogen-activated protein kinase 8 (Homo sapiens) (UniProt P45983). The settings on record: at 10 µM.
With `C[S+]([O-])c1ccc(-c2nc(-c3ccc(F)cc3)c(-c3ccncc3)[nH]2)cc1` (stereo not drawn), the residual activity worked out at 101%.

With `O=C1NCc2c1c1c3ccccc3[nH]c1c1[nH]c3ccccc3c21`, the residual activity turned out to be 82%.

Another assay addresses Rho-associated protein kinase 2 (Rattus norvegicus) (UniProt Q62868). To be noted: Sf9, at 10 µM.
`C[S+]([O-])c1ccc(-c2nc(-c3ccc(F)cc3)c(-c3ccncc3)[nH]2)cc1` (stereo not drawn): the residual activity is 77%.

`O=C1NCc2c1c1c3ccccc3[nH]c1c1[nH]c3ccccc3c21`: the residual activity is 19%.

In the next assay the target is T2, Serine/threonine-protein kinase Chk1 (Homo sapiens) (UniProt O14757).
T2 sequence (whole entry): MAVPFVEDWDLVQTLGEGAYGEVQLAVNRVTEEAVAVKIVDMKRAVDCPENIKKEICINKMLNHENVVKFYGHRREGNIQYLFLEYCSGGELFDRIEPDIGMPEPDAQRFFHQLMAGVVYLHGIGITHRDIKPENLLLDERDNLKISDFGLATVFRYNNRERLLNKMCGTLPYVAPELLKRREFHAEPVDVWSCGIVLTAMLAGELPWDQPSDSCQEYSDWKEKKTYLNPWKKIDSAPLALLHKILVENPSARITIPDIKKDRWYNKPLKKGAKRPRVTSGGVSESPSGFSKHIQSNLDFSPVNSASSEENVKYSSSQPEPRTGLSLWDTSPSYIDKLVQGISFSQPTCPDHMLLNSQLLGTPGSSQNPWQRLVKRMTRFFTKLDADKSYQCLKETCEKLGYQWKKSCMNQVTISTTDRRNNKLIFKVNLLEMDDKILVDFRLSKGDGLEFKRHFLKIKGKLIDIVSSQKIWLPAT
To be noted: at 10 µM.
On to `C[S+]([O-])c1ccc(-c2nc(-c3ccc(F)cc3)c(-c3ccncc3)[nH]2)cc1` (stereo not drawn), for which the residual activity is 95%.

In the case of `O=C1NCc2c1c1c3ccccc3[nH]c1c1[nH]c3ccccc3c21`, the residual activity is 4%.

The next assay concerns the target T3, Mitogen-activated protein kinase 12 (Homo sapiens) (UniProt P53778).
T3 sequence (whole entry): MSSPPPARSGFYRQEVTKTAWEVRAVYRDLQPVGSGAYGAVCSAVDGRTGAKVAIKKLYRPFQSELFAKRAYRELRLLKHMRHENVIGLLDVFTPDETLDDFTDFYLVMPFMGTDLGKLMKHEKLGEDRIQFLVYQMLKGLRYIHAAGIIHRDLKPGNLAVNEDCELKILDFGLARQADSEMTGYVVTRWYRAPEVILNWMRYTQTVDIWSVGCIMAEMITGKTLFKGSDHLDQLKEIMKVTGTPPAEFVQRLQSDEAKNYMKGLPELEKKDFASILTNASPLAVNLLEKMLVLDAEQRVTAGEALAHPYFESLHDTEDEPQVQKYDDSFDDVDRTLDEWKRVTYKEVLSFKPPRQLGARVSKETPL
To be noted: at 10 µM.
With `O=C1NCc2c1c1c3ccccc3[nH]c1c1[nH]c3ccccc3c21`, the residual activity was 64%.

The target of the next assay is RAC-alpha serine/threonine-protein kinase (Homo sapiens) (UniProt P31749). The settings on record: Sf9, at 10 µM.
Sequence of RAC-alpha serine/threonine-protein kinase (Homo sapiens) (P31749 whole entry): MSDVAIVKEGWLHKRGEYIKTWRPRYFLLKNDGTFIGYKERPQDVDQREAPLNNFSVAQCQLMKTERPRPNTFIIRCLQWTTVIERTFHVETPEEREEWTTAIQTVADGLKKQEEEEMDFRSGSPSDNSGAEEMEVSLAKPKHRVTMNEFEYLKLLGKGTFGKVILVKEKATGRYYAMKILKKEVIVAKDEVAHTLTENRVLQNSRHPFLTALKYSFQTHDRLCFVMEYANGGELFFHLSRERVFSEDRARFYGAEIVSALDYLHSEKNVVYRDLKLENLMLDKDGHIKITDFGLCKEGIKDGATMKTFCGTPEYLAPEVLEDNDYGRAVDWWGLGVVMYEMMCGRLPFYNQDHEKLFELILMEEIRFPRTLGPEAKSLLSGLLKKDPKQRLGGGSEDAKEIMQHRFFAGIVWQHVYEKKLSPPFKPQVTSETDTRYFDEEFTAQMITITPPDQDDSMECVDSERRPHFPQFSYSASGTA
Take `C[S+]([O-])c1ccc(-c2nc(-c3ccc(F)cc3)c(-c3ccncc3)[nH]2)cc1` (stereo not drawn): the residual activity came out at 62%.

In the case of `O=C1NCc2c1c1c3ccccc3[nH]c1c1[nH]c3ccccc3c21`, the residual activity is 65%.

The next assay deals with T4, MAP kinase-activated protein kinase 5 (Homo sapiens) (UniProt Q8IW41).
T4 sequence (whole entry): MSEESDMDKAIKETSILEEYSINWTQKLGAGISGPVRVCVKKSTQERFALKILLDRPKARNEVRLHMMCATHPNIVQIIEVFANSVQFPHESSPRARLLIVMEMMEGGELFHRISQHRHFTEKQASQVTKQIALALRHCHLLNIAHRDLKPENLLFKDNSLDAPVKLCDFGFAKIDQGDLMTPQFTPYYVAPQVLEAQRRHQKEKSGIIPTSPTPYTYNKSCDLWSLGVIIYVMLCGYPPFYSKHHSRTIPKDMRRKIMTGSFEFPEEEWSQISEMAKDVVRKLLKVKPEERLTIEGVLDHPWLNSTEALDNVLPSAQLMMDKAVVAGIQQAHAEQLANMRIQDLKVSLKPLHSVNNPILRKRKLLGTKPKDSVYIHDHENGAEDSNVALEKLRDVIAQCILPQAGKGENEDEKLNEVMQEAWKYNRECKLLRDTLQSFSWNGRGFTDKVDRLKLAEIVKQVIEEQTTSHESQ
To be noted: Sf9, at 10 µM.
Consider `C[S+]([O-])c1ccc(-c2nc(-c3ccc(F)cc3)c(-c3ccncc3)[nH]2)cc1` (stereo not drawn), for which the residual activity came to 112%.

Turning to `O=C1NCc2c1c1c3ccccc3[nH]c1c1[nH]c3ccccc3c21`, the residual activity worked out at 50%.

A further assay is filed under the species Oryctolagus cuniculus. To be noted: at 10 µM.
As for `C[S+]([O-])c1ccc(-c2nc(-c3ccc(F)cc3)c(-c3ccncc3)[nH]2)cc1` (stereo not drawn), the residual activity is 99%.

Take `O=C1NCc2c1c1c3ccccc3[nH]c1c1[nH]c3ccccc3c21`: the residual activity stood at 59%.

The next assay addresses Mitogen-activated protein kinase 11 (Homo sapiens) (UniProt Q15759). To be noted: at 10 µM.
With `C[S+]([O-])c1ccc(-c2nc(-c3ccc(F)cc3)c(-c3ccncc3)[nH]2)cc1` (stereo not drawn), the residual activity stood at 10%.

For `O=C1NCc2c1c1c3ccccc3[nH]c1c1[nH]c3ccccc3c21`, the residual activity was 88%.

In the next assay the target is Casein kinase II (Homo sapiens) (UniProt P67870+P68400+P19784). To be noted: Sf9, at 10 µM.
For `C[S+]([O-])c1ccc(-c2nc(-c3ccc(F)cc3)c(-c3ccncc3)[nH]2)cc1` (stereo not drawn), the residual activity is 97%.

For the compound `O=C1NCc2c1c1c3ccccc3[nH]c1c1[nH]c3ccccc3c21`, the residual activity was 67%.

The target in a further assay is MAP kinase-activated protein kinase 2 (Homo sapiens, UniProt P49137). To be noted: at 10 µM.
Sequence of MAP kinase-activated protein kinase 2 (P49137 whole entry, looked up): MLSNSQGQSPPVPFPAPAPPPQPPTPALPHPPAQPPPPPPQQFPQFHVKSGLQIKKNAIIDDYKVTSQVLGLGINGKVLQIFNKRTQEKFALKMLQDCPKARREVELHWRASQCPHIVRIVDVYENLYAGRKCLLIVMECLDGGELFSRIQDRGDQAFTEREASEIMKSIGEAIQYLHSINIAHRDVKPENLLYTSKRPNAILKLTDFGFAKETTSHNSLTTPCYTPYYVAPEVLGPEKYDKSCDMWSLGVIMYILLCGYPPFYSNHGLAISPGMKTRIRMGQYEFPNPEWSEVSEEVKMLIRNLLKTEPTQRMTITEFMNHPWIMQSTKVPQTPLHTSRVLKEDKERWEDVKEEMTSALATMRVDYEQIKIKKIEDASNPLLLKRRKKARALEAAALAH
For the compound `C[S+]([O-])c1ccc(-c2nc(-c3ccc(F)cc3)c(-c3ccncc3)[nH]2)cc1` (stereo not drawn), the residual activity was 93%.

Regarding `O=C1NCc2c1c1c3ccccc3[nH]c1c1[nH]c3ccccc3c21`, the residual activity amounted to 83%.

The next assay addresses T5, Serine/threonine-protein kinase Sgk1 (Homo sapiens) (UniProt O00141).
T5 sequence (whole entry): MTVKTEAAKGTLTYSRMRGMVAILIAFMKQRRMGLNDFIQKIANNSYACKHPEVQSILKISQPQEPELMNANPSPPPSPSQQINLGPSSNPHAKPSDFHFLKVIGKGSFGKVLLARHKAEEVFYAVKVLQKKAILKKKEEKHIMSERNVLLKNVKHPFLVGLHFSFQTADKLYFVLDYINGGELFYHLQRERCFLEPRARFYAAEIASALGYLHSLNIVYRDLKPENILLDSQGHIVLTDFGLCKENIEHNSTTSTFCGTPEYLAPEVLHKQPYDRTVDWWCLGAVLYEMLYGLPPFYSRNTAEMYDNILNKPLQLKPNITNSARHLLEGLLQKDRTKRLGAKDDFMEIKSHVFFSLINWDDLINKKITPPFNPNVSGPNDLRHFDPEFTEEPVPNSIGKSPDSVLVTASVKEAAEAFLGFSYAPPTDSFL
The settings on record: Sf9, at 10 µM.
Take `C[S+]([O-])c1ccc(-c2nc(-c3ccc(F)cc3)c(-c3ccncc3)[nH]2)cc1` (stereo not drawn): the residual activity turned out to be 83%.

For the compound `O=C1NCc2c1c1c3ccccc3[nH]c1c1[nH]c3ccccc3c21`, the residual activity stood at 28%.

A further assay addresses Ribosomal protein S6 kinase alpha-5 (Homo sapiens, UniProt O75582). The settings on record: Sf9, at 10 µM.
For `O=C1NCc2c1c1c3ccccc3[nH]c1c1[nH]c3ccccc3c21`, the residual activity came out at 62%.

A further assay concerns the target Ribosomal protein S6 kinase beta-1 (Homo sapiens, UniProt P23443). The settings on record: at 10 µM.
Take `C[S+]([O-])c1ccc(-c2nc(-c3ccc(F)cc3)c(-c3ccncc3)[nH]2)cc1` (stereo not drawn): the residual activity turned out to be 87%.

As for `O=C1NCc2c1c1c3ccccc3[nH]c1c1[nH]c3ccccc3c21`, the residual activity came to 49%.

Values taken from ChEMBL document CHEMBL1240295, “Specificity and mechanism of action of some commonly used protein kinase inhibitors” (Biochem J, 2000).
